Measured values reported in ChEMBL document CHEMBL5316365, “Anti-Neuroinflammatory Meroterpenoids from a Chinese Collection of the Brown Alga Sargassum siliquastrum” (J Nat Prod, 2023).
Calls of active or inactive are those of the source. No cut-off for these calls is given here.

Experiments:
BV-2 [1] = assay: Anti-neuroinflammatory activity in LPS-induced mouse BV-2 cells assessed as inhibition of NO production pretreated for 4 hrs followed by LPS stimulation for 24 hrs by griess reagent based assay; format: functional, cell-based
[2] = Cytotoxicity against mouse BV-2 cells incubated for 24 hrs by MTT assay; format: toxicity, cell-based
[3] = target: Transcription factor p65 (Mus musculus) (UniProt Q04207); assay: Inhibition of NF-kappaB p65 translocation from cytosol to nucleus in LPS-induced mouse BV-2 cells at 5 to 10 uM pretreated for 4 hrs followed by LPS stimulation and measured after 24 hrs by Western blot analysis; format: cell-based; conditions: dose 5-10 µM, time 28.0 hrs
BV-2 [4] = assay: Antineuroinflammatory activity in LPS-induced mouse BV-2 cells assessed as decrease in IL-1beta protein level pretreated for 4 hrs followed by LPS stimulation for 24 hrs by ELISA; format: functional, cell-based; conditions: dose 2.5-10 µM, time 28.0 hrs
BV-2 [5] = assay: Antineuroinflammatory activity in LPS-induced mouse BV-2 cells assessed as decrease in IL-6 protein level pretreated for 4 hrs followed by LPS stimulation for 24 hrs by ELISA; format: functional, cell-based; conditions: dose 2.5-10 µM, time 28.0 hrs
BV-2 [6] = assay: Antineuroinflammatory activity in LPS-induced mouse BV-2 cells assessed as decrease in TNFalpha protein level pretreated for 4 hrs followed by LPS stimulation for 24 hrs by ELISA; format: functional, cell-based; conditions: dose 2.5-10 µM, time 28.0 hrs
BV-2 [7] = assay: Antineuroinflammatory activity in LPS-induced mouse BV-2 cells assessed as decrease in IL-1beta mRNA level preincubated for 4 hrs followed by LPS stimulation and measured after 6 hrs by RT-PCR method; format: functional, cell-based; conditions: dose 2.5-10 µM, time 10.0 hrs
BV-2 [8] = assay: Antineuroinflammatory activity in LPS-induced mouse BV-2 cells assessed as decrease in IL-6 mRNA level preincubated for 4 hrs followed by LPS stimulation and measured after 6 hrs by RT-PCR method; format: functional, cell-based; conditions: dose 2.5-10 µM, time 10.0 hrs
BV-2 [9] = assay: Antineuroinflammatory activity in LPS-induced mouse BV-2 cells assessed as decrease in TNFalpha mRNA level preincubated for 4 hrs followed by LPS stimulation and measured after 6 hrs by RT-PCR method; format: functional, cell-based; conditions: dose 2.5-10 µM, time 10.0 hrs
BV-2 [10] = assay: Antineuroinflammatory activity in LPS-induced mouse BV-2 cells assessed as downregulation of NF-kappaB p65 protein expression in nucleus at 5 to 10 uM pretreated for 4 hrs followed by LPS stimulation and measured after 24 hrs by Western blot analysis; format: functional, cell-based; conditions: dose 5-10 µM, time 28.0 hrs
BV-2 [11] = assay: Effect on NF-kbeta p65 total protein level in mouse BV-2 cells at 5 to 10 uM pretreated for 4 hrs followed by LPS stimulation and measured after 24 hrs by Western blot analysis; format: functional, cell-based; conditions: dose 5-10 µM, time 28.0 hrs
BV-2 [12] = assay: Antineuroinflammatory activity in LPS-induced mouse BV-2 cells assessed as upregulation of IkappaB protein level in nucleus at 5 to 10 uM pretreated for 4 hrs followed by LPS stimulation and measured after 24 hrs by Western blot analysis; format: functional, cell-based; conditions: dose 5-10 µM, time 28.0 hrs
BV-2 [13] = assay: Antineuroinflammatory activity in LPS-induced mouse BV-2 cells assessed as downregulation of IKK protein level in nucleus at 5 to 10 uM pretreated for 4 hrs followed by LPS stimulation and measured after 24 hrs by Western blot analysis; format: functional, cell-based; conditions: dose 5-10 µM, time 28.0 hrs
[14] = target: Transcription factor p65 (Mus musculus) (UniProt Q04207); assay: Inhibition of NF-kappaB p65 translocation from cytosol to nucleus in LPS-induced mouse BV-2 cells at 2.5 to 10 uM pretreated for 4 hrs followed by LPS stimulation and measured after 24 hrs by immunofluorescence analysis; format: cell-based; conditions: dose 2.5-10 µM, time 28.0 hrs

Transcription factor p65 (Mus musculus), sequence (Q04207 whole entry): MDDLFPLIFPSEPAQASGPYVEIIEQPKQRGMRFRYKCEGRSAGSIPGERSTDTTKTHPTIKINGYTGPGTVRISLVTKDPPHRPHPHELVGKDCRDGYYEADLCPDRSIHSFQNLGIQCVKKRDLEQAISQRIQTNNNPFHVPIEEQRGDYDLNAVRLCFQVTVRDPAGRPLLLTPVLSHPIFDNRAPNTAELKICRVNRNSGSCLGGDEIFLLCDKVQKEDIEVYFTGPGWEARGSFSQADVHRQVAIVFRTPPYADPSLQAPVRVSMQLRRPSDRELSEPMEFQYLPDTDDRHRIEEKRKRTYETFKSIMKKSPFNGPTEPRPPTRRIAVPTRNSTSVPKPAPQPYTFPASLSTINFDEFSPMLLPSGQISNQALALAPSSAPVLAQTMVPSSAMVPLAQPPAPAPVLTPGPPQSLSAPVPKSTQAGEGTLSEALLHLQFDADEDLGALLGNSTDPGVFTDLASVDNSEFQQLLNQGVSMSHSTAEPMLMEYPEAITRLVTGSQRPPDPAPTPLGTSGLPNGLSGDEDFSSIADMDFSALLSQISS

SMILES | IC50 (BV-2 [1]) | CC50 at 24 h [2] | also measured
CC(C)=CC(=O)C/C(C)=C/CC/C(C)=C/CC[C@]1(C)CCc2cc(O)cc(C)c2O1 | > 30 µM | > 50 µM | –
CC(C)=CC(CO)/C(=C/CC/C(C)=C/CC[C@]1(C)CCc2cc(O)cc(C)c2O1)CO (some centres not stated) | 5 µM | > 50 µM | –
CC(=O)/C=C/C/C(C)=C/CC[C@]1(C)CCc2cc(O)cc(C)c2O1 | 2 µM | > 50 µM | inhibition [3]: Active; Activity (BV-2 [4]): Dose-Dependent Effect; Activity (BV-2 [5]): Dose-Dependent Effect; Activity (BV-2 [6]): Dose-Dependent Effect; Activity (BV-2 [7]): Dose-Dependent Effect; Activity (BV-2 [8]): Dose-Dependent Effect; Activity (BV-2 [9]): Dose-Dependent Effect; Activity (BV-2 [10]): Active; Activity (BV-2 [11]): inactive; Activity (BV-2 [12]): Active; Activity (BV-2 [13]): Active; inhibition [14]: Active
CC(C)=C[C@H](O)[C@@H](O)/C(C)=C/CC/C(C)=C/CC[C@]1(C)CCc2cc(O)c(C)c(C)c2O1 | 25 µM | > 50 µM | –
C/C(=C\CC[C@]1(C)CCc2cc(O)cc(C)c2O1)CC/C=C(\C)C(=O)/C=C/C(C)(C)OO | 29 µM | > 50 µM | –
C/C(=C\CC[C@]1(C)CCc2cc(O)cc(C)c2O1)CC/C=C(\C)C(=O)/C=C/C(C)(C)O | 13 µM | > 50 µM | –
C=C(CC/C=C(\C)[C@H](O)[C@@H](O)C=C(C)C)C(=O)CC[C@]1(C)CCc2cc(O)cc(C)c2O1 | 19 µM | > 50 µM | –
CC(C)=CC(=O)C(=O)/C(C)=C/CC/C(C)=C/CC[C@]1(C)CCc2cc(O)cc(C)c2O1 | > 30 µM | > 50 µM | –
C/C(=C\CC[C@]1(C)CCc2cc(O)cc(C)c2O1)CC/C=C(\C)C(=O)C(=O)CC(C)C | 8 µM | > 50 µM | –
CC(C)=CC(O)C(=O)/C(C)=C/[C@H](O)C/C(C)=C/CC[C@]1(C)CCc2cc(O)cc(C)c2O1 (some centres not stated) | 6 µM | > 50 µM | –
